Measurements taken from US20250197387A1, “BCL-XL DEGRADERS AND USES THEREOF” (Kymera Therapeutics, Inc., priority 2021, published 2025).
Like-named read-outs stand apart in the source and are kept apart here.

Experiments:
Type in all cases: cell-based
BCL-XL [1] = molecular target: T1, BCL-XL (Homo sapiens, UniProt Q07817); experiment: BCL-XL degradation assay, western blot in MOLT-4 cells, 16 h; conditions: for DC50: read-out: Bcl-xL WB in MOLT-4 degradation 16 h: Mean external-Abs DC50
T1 construct: endogenous in cells; host or cells: MOLT-4
Outline: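 Infrared-imaged western blots quantified BCL-xL (normalised against beta-actin/GAPDH) after 16 hr, 37° C exposure of MOLT-4 cells to 0.02-10 μM compound; results given as DC50 and Dmax % bins.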

MOLT-4 cells = experiment: CTG (CellTiter-Glo) cell viability assay, MOLT-4; conditions: 3 day incubation, read-out: CTG Cell Viability Assay - MOLT-4 3 day: Average external-IC50
Outline: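 Nine-point 1:3 compound series topping at 10 μM (0.2% DMSO final) applied for 3 days to 10,000 MOLT-4 or Caki-2 cells per well, 37° C., 5% CO2. CellTiter-Glo luminescence read after 10 min at room temperature; three-parameter fit gave IC50.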

BCL-XL [2] = molecular target: T1, BCL-XL; experiment: Bcl-xL ELISA degradation in MOLT-4 cells, 6 h
Experimental: The letter codes for BCL-XL DC50 include: A (<0.01 μM); B (0.01-0.1 μM); C (>[…]); D (>0.5-1.0 μM); and E (>1.0 μM). The letter codes for Dmax % include A (>75%); B (50 to 75%); C (<50%).

[3] = western blot, MOLT-4 cells, 16 h
[4] = western blot, MOLT-4 cells, 16 h, read-out: Bcl-xL WB in MOLT-4 degradation 16 h: Average Dmax %

T1 sequence (Q07817 whole entry): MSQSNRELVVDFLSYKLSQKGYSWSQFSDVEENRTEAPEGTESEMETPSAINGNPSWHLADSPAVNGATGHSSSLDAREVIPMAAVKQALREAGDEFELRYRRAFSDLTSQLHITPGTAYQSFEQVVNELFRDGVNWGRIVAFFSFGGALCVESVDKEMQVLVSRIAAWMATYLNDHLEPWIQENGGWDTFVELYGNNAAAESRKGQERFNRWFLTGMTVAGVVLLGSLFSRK

Cc1ncsc1-c1ccc([C@H](C)NC(=O)[C@@H]2C[C@@H](O)CN2C(=O)[C@@H](NC(=O)CCCCCCC(=O)N2CCN(CC3(C)CCC(c4ccc(Cl)cc4)=C(CN4CCN(c5ccc(C(=O)NS(=O)(=O)c6ccc(N[C@H](CCN7CCOCC7)CSc7ccccc7)c(S(=O)(=O)C(F)(F)F)c6)cc5)CC4)C3)CC2)C(C)(C)C)cc1 (some centres unmarked) [I-399]
Bcl-xL WB in MOLT-4 degradation 16 h: Average Dmax % (BCL-XL [1]; [3]): A (A (>75%)) | DC50 (BCL-XL [1]; [3]): < 10 nM | IC50 (MOLT-4 cells): 100 to 1000 nM | Bcl-xL ELISA in MOLT-4 degradation 6 h: Average Dmax % (BCL-XL [2]): C (C (<50%)) | DC50 (BCL-XL [2]; read-out: Bcl-xL ELISA in MOLT-4 degradation 6 h: Mean external-Abs DC50): 100 to 500 nM

Cc1ncsc1-c1ccc(CNC(=O)[C@@H]2C[C@@H](O)CN2C(=O)[C@@H](NC(=O)C2(C#N)CC2)C(C)(C)C)c(OCC(=O)N2CCN(CC[C@H](CSc3ccccc3)Nc3ccc(S(=O)(=O)NC(=O)c4ccc(N5CCN(CC6=C(c7ccc(Cl)cc7)CCC(C)(C)C6)CC5)cc4)cc3S(=O)(=O)C(F)(F)F)CC2)c1 [I-133]
Dmax (BCL-XL [1]; [4]): > 75% | DC50 (BCL-XL [1]; [3]): 10 to 100 nM | IC50 (MOLT-4 cells; Homo sapiens, MOLT-4, 72 h): 1000 to 3000 nM

Cc1cc(N(C)c2ccc(-c3cnn(CC4CCCCC4)c3C)c(C(=O)NCCCCCCOc3cc(-c4scnc4C)ccc3CNC(=O)[C@@H]3C[C@@H](O)CN3C(=O)[C@@H](NC(=O)C3(F)CC3)C(C)(C)C)n2)nnc1Nc1nc2ccccc2s1 [I-203]
Dmax (BCL-XL [1]; [4]): < 50% | DC50 (BCL-XL [1]; [3]): > 1000 nM | IC50 (MOLT-4 cells; Homo sapiens, MOLT-4, 72 h): 100 to 1000 nM

Cc1ncsc1-c1ccc(CNC(=O)[C@@H]2CC(O)CN2C(=O)[C@@H](NC(=O)C2(F)CC2)C(C)(C)C)c(OCCCCCCCCS(=O)(=O)NC(=O)c2nc(N3CCc4cccc(C(=O)Nc5nc6ccccc6s5)c4C3)ccc2-c2cnn(CC34CC5CC(CC(C5)C3)C4)c2C)c1 (some centres unmarked) [I-122]
Dmax (BCL-XL [1]; [4]): > 75% | DC50 (BCL-XL [1]; [3]): < 10 nM | IC50 (MOLT-4 cells; Homo sapiens, MOLT-4, 72 h): < 100 nM

Cc1ncsc1-c1ccc([C@H](C)NC(=O)[C@@H]2C[C@@H](O)CN2C(=O)[C@@H](NC(=O)CCCCCCCC(=O)NCCOc2ccc(C(=O)Nc3nc4ccccc4s3)c3c2CCN(c2ccc(-c4cnn(CC5CCCCC5)c4C)c(C(=O)O)n2)C3)C(C)(C)C)cc1 [I-45]
Dmax (BCL-XL [1]; [4]): > 75% | DC50 (BCL-XL [1]; [3]): 10 to 100 nM | IC50 (MOLT-4 cells; Homo sapiens, MOLT-4, 72 h): 1000 to 3000 nM

Cc1ncsc1-c1ccc([C@@H](CC(=O)N(C)CC(=O)N2CCN(CC[C@H](CSc3ccccc3)Nc3ccc(S(=O)(=O)NC(=O)c4ccc(N5CCN(CC6=C(c7ccc(Cl)cc7)CCC(C)(C)C6)CC5)cc4)cc3S(=O)(=O)C(F)(F)F)CC2)NC(=O)[C@@H]2C[C@@H](O)CN2C(=O)[C@@H](NC(=O)C2(F)CC2)C(C)(C)C)cc1 [I-137]
Dmax (BCL-XL [1]; MOLT-4, read-out: Bcl-xL WB in MOLT-4 degradation 16 h: Average Dmax %): > 75% | DC50 (BCL-XL [1]; [3]): 100 to 500 nM | IC50 (MOLT-4 cells; Homo sapiens, 72 h): 1000 to 3000 nM

C#Cc1ccc([C@H](CO)NC(=O)[C@@H]2C[C@@H](O)CN2C(=O)[C@@H](NC(=O)CCCCCC(=O)N2CCN(CC[C@H](CSc3ccccc3)Nc3ccc(S(=O)(=O)NC(=O)c4ccc(N5CCN(CC6=C(c7ccc(Cl)cc7)CCC(C)(C)C6)CC5)cc4)cc3S(=O)(=O)C(F)(F)F)CC2)C(C)(C)C)cc1 [I-116]
Dmax (BCL-XL [1]; [4]): > 75% | DC50 (BCL-XL [1]; [3]): 10 to 100 nM | IC50 (MOLT-4 cells; Homo sapiens, MOLT-4, 72 h): < 100 nM

Cc1ncsc1-c1ccc(CNC(=O)[C@@H]2C[C@@H](O)CN2C(=O)[C@@H](c2cc(N3CC4(CN(CCCC(=O)N(C)CC#Cc5ccc(OCCCc6ccc(N7CCc8cccc(C(=O)Nc9nc%10ccccc%10s9)c8C7)nc6C(=O)O)c(F)c5)C4)C3)no2)C(C)C)cc1 [I-180]
Dmax (BCL-XL [1]; [4]): < 50% | DC50 (BCL-XL [1]; [3]): > 1000 nM | IC50 (MOLT-4 cells; Homo sapiens, MOLT-4, 72 h): > 3000 nM

Cc1ncsc1-c1ccc([C@@H](CC(=O)N(C)CCCC(=O)N2CCN(CC[C@H](CSc3ccccc3)Nc3ccc(S(=O)(=O)NC(=O)c4ccc(N5CCN(CC6=C(c7ccc(Cl)cc7)CCC(C)(C)C6)CC5)cc4)cc3S(=O)(=O)C(F)(F)F)CC2)NC(=O)[C@@H]2C[C@@H](O)CN2C(=O)[C@@H](NC(=O)C2(F)CC2)C(C)(C)C)cc1 [I-139]
Dmax (BCL-XL [1]; [4]): > 75% | DC50 (BCL-XL [1]; [3]): 100 to 500 nM | IC50 (MOLT-4 cells; Homo sapiens, MOLT-4, 72 h): 1000 to 3000 nM

Cc1cc([C@H](C(=O)N2C[C@H](O)C[C@H]2C(=O)NCc2ccc(-c3scnc3C)cc2OCC(=O)N2CCN(CC[C@H](CSc3ccccc3)Nc3ccc(S(=O)(=O)NC(=O)c4ccc(N5CCN(CC6=C(c7ccc(Cl)cc7)CCC(C)(C)C6)CC5)cc4)cc3S(=O)(=O)C(F)(F)F)CC2)C(C)C)on1 [I-134]
Dmax (BCL-XL [1]; [4]): < 50% | DC50 (BCL-XL [1]; [3]): > 1000 nM | IC50 (MOLT-4 cells; Homo sapiens, MOLT-4, 72 h): > 3000 nM

Cc1ncsc1-c1ccc([C@H](C)NC(=O)[C@@H]2C[C@@H](O)CN2C(=O)[C@@H](NC(=O)CCCCCCCCNC(=O)c2nc(N3CCc4cccc(C(=O)Nc5nc6ccccc6s5)c4C3)ccc2-c2cnn(CC3CCOCC3)c2C)C(C)(C)C)cc1 [I-142]
Dmax (BCL-XL [1]; [4]): > 75% | DC50 (BCL-XL [1]; [3]): 100 to 500 nM | IC50 (MOLT-4 cells; Homo sapiens, MOLT-4, 72 h): > 3000 nM

Cc1ncsc1-c1ccc(CNC(=O)[C@@H]2C[C@@H](O)CN2C(=O)[C@@H](c2cc(OCCCCCCCCC(=O)N(C)CC#Cc3ccc(OCCCc4ccc(N5CCc6cccc(C(=O)Nc7nc8ccccc8s7)c6C5)nc4C(=O)O)c(F)c3)no2)C(C)C)cc1 [I-171]
Dmax (BCL-XL [1]; [4]): 50 to 75% | DC50 (BCL-XL [1]; [3]): 100 to 500 nM | IC50 (MOLT-4 cells; Homo sapiens, MOLT-4, 72 h): 1000 to 3000 nM

Cc1ncsc1-c1ccc(CNC(=O)[C@@H]2C[C@@H](O)CN2C(=O)[C@@H](NC(=O)C2(F)CC2)C(C)(C)C)c(OCCCCNC(=O)c2nc(N3CCc4cccc(C(=O)Nc5nc6ccccc6s5)c4C3)ccc2-c2cnn(CC3CCCCC3)c2C)c1 [I-190]
Dmax (BCL-XL [1]; [4]): 50 to 75% | DC50 (BCL-XL [1]; [3]): 500 to 1000 nM | IC50 (MOLT-4 cells; Homo sapiens, MOLT-4, 72 h): 100 to 1000 nM

Cc1ncsc1-c1ccc(CNC(=O)[C@@H]2C[C@@H](O)CN2C(=O)[C@@H](NC(=O)C2(F)CC2)C(C)(C)C)c(OCCCCCCCC(=O)NCCOc2ccc(C(=O)Nc3nc4ccccc4s3)c3c2CCN(c2ccc(-c4cnn(CC5CCCCC5)c4C)c(C(=O)O)n2)C3)c1 [I-48]
Dmax (BCL-XL [1]; [4]): 50 to 75% | DC50 (BCL-XL [1]; [3]): 100 to 500 nM | IC50 (MOLT-4 cells; Homo sapiens, MOLT-4, 72 h): 100 to 1000 nM

Cc1ncsc1-c1ccc([C@H](C)NC(=O)[C@@H]2C[C@@H](O)CN2C(=O)[C@H](c2cc(OC3CCN(CCCS(=O)(=O)NC(=O)c4nc(N5CCc6cccc(C(=O)Nc7nc8ccccc8s7)c6C5)ccc4-c4cnn(CC5CCCCC5)c4C)CC3)no2)C(C)C)cc1 [I-174]
Dmax (BCL-XL [1]; [4]): < 50% | DC50 (BCL-XL [1]; [3]): > 1000 nM | IC50 (MOLT-4 cells; Homo sapiens, MOLT-4, 72 h): 1000 to 3000 nM

Cc1ncsc1-c1ccc(CNC(=O)[C@@H]2C[C@@H](O)CN2C(=O)[C@@H](NC(=O)C2(F)CC2)C(C)(C)C)c(OCC(=O)N2CCN(CCCC3(Cn4ncc(-c5ccc(N6CCc7cccc(C(=O)Nc8nc9ccccc9s8)c7C6)nc5C(=O)O)c4C)CCCCC3)CC2)c1 [I-173]
Dmax (BCL-XL [1]; [4]): 50 to 75% | DC50 (BCL-XL [1]; [3]): > 1000 nM | IC50 (MOLT-4 cells; Homo sapiens, MOLT-4, 72 h): 100 to 1000 nM

Cc1ncsc1-c1ccc([C@H](C)NC(=O)[C@@H]2C[C@@H](O)CN2C(=O)[C@@H](NC(=O)CCCCCCCS(=O)(=O)NC(=O)c2nc(N3CCc4cccc(C(=O)Nc5nc6ncccc6s5)c4C3)ccc2-c2cnn(CC34CC5CC(CC(C5)C3)C4)c2C)C(C)(C)C)cc1 [I-140]
Dmax (BCL-XL [1]; [4]): > 75% | DC50 (BCL-XL [1]; [3]): < 10 nM | IC50 (MOLT-4 cells; Homo sapiens, MOLT-4, 72 h): 100 to 1000 nM

Cc1ncsc1-c1ccc([C@H](C)NC(=O)[C@@H]2C[C@@H](O)CN2C(=O)[C@@H](NC(=O)CCCCCC(=O)N2CCN(CC[C@H](CSc3ccccc3)Nc3ccc(S(=O)(=O)NC(=O)c4csc(N5CCc6cccc(C(=O)Nc7nc8ccccc8s7)c6C5)n4)cc3S(=O)(=O)C(F)(F)F)CC2)C(C)(C)C)cc1 [I-108]
Dmax (BCL-XL [1]; [4]): > 75% | DC50 (BCL-XL [1]; [3]): 10 to 100 nM | IC50 (MOLT-4 cells; Homo sapiens, MOLT-4, 72 h): 1000 to 3000 nM

Cc1ncsc1-c1ccc([C@H](CC(=O)N(C)CCCC(=O)N2CCN(CC[C@H](CSc3ccccc3)Nc3ccc(S(=O)(=O)NC(=O)c4ccc(N5CCN(CC6=C(c7ccc(Cl)cc7)CCC(C)(C)C6)CC5)cc4)cc3S(=O)(=O)C(F)(F)F)CC2)NC(=O)[C@@H]2C[C@@H](O)CN2C(=O)[C@@H](NC(=O)C2(F)CC2)C(C)(C)C)cc1 [I-138]
Dmax (BCL-XL [1]; [4]): < 50% | DC50 (BCL-XL [1]; [3]): > 1000 nM | IC50 (MOLT-4 cells; Homo sapiens, MOLT-4, 72 h): > 3000 nM

Cc1ncsc1-c1ccc([C@H](C)NC(=O)[C@@H]2C[C@@H](O)CN2C(=O)[C@@H](NC(=O)N2CC3(CN(CCCS(=O)(=O)NC(=O)c4nc(N5CCc6cccc(C(=O)Nc7nc8ccccc8s7)c6C5)ccc4-c4cnn(CC5CCCCC5)c4C)C3)C2)C(C)(C)C)cc1 [I-151]
Dmax (BCL-XL [1]; [4]): < 50% | DC50 (BCL-XL [1]; [3]): 100 to 500 nM | IC50 (MOLT-4 cells; Homo sapiens, MOLT-4, 72 h): 1000 to 3000 nM

Cc1ncsc1-c1ccc([C@H](C)NC(=O)[C@@H]2C[C@@H](O)CN2C(=O)[C@H](NC(=O)CCCCCCCS(=O)(=O)NC(=O)c2nc(N3CCc4cccc(C(=O)Nc5nc6ccccc6s5)c4C3)ccc2-c2cnn(C)c2C)C(C)(C)C)cc1 [I-145]
Dmax (BCL-XL [1]; [4]): > 75% | DC50 (BCL-XL [1]; [3]): 100 to 500 nM | IC50 (MOLT-4 cells; Homo sapiens, MOLT-4, 72 h): > 3000 nM
